Laboratory results as given in article PMC12064818, “A general assay platform to study protein pharmacology using ligand-dependent structural dynamics” (Nature Communications, 2025).
Like-named read-outs stand apart in the source and are kept apart here.

Tests used:
[1] = molecular target: FLuc-C-NLuc (firefly luciferase) (Photinus pyralis, UniProt P08659, form not given/L550V); test: SDR assay, FLuc-C-NLuc; settings: - ATP
[2] = molecular target: T1, NLuc (Oplophorus gracilirostris, UniProt Q9GV45, A31E/A60N/A81I/F95D/I117V/K70R/L54V/L99Q/M102K/N193R/P142E/Q151K/Q38R/Q45L/V71I/Y165I); format: biochemical; settings: - ATP
T1 construct: His tag (inferred from IMAC purification); made in house; host or cells: E. coli
T1 sequence (Q9GV45 other isoform, or with tags, fused parts or gaps with the stated changes): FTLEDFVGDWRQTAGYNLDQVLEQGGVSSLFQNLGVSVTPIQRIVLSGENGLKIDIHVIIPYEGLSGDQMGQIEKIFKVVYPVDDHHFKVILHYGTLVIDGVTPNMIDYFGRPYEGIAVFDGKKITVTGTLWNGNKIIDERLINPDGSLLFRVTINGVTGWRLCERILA
Procedure: Compounds and controls were added to plates as described in Supplementary Data 8. Nano-Glo luciferase assay reagent (Promega) was prepared fresh according to manufacturer’s protocol, filtered and added at 3 μL per well across assay plates with a BioRaptr2 dispenser. Enzyme was incubated with Nano-Glo reagent for 10 min and NLuc luminescence was read on a ViewLux CCD imager (PerkinElmer), with 1 s exposure with medium gain and 2x binning. Data were normalized to average no enzyme control as 100% enzyme inhibition and average DMSO neutral control. See Supplementary Table 4 for additional details.
Supplementary Table 4. […]
Sequence Param eter Value Description […]
5 Detector ViewLux Read plate lum inescence (Exposure = 1- 10 sec; Gain = Medium -high; Speed = Slow;
Dispensing solution was diluted in 1X PBS, pH 7.4.
NanoLuc luciferase (NLuc) enzym atic lum inescence assay […]
Nano-Glo luciferase assay reagent (Prom ega, Cat # N1120) prepared according to m anufacturer’s recom m endations,
4 com ponents stored at -30 °C until use, and reagent prepared fresh for each assay.
syringe filter prior to dispense.

[3] = molecular target: FLuc-C-HiBiT (firefly luciferase) (Photinus pyralis, UniProt P08659, form not given/L550V); test: SDR assay, FLuc-C-HiBiT; settings: SDR max. response, clade S
FLuc-C-HiBiT (firefly luciferase), sequence (P08659 2-550 L550V, form open): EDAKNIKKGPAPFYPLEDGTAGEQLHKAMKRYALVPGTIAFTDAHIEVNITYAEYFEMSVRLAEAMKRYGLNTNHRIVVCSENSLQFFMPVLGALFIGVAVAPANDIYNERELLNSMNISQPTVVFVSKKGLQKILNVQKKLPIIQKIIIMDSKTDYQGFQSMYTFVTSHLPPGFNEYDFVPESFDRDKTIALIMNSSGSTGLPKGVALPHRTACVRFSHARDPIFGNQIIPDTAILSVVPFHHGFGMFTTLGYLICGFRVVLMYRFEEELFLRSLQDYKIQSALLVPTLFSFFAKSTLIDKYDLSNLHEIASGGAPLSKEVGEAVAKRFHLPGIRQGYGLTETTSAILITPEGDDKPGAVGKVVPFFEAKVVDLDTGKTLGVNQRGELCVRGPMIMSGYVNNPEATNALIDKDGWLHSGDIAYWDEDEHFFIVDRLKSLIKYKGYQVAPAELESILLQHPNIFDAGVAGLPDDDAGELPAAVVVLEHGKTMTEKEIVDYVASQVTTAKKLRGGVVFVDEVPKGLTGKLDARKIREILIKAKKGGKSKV

[4] = molecular target: P. pyralis FLuc (Photinus pyralis, UniProt P08659); test: FLuc enzymatic luminescence assay, P. pyralis FLuc; format: biochemical; settings: FLuc enzymatic assay; for IC50: read-out: IC50 or SDR50 (mM) FLuc E
P. pyralis FLuc, sequence (P08659 whole entry): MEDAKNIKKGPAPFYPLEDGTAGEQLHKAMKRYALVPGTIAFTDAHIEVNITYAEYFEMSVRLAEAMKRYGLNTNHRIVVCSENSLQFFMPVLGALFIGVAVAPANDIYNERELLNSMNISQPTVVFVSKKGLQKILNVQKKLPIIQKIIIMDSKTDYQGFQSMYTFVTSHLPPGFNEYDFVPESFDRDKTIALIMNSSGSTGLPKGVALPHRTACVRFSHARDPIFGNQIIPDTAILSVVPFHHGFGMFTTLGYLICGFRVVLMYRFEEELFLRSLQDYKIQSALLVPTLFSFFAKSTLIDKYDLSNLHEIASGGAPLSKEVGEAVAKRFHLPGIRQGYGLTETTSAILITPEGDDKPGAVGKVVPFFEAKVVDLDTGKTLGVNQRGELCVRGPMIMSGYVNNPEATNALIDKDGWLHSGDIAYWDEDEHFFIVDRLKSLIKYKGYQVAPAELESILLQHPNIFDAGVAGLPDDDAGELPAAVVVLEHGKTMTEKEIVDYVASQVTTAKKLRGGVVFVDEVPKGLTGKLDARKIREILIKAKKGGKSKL
Outline: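 Runs with and without 10 µM ATP: compounds were pre-incubated with FLuc (1–10 nM, PBS pH 7.4) at ambient temperature, light-protected, for 30–60 min. Luminescence was imaged 5 min after adding 10 µM D-luciferin (final). Inhibition was scaled between DMSO neutral and no-enzyme controls.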

FLuc-C-NLuc (firefly luciferase), sequence (P08659 2-550 L550V, form open): as the sequence (P08659 2-550 L550V, form open) above

| SMILES | Efficacy (%) FLuc-C-NLuc SDR (-ATP) [1] | Efficacy (%) NLuc (- ATP) [2] | % Activity (max response, + ATP) [3] | % Activity (max response, - ATP) [3] | Efficacy (%) FLuc E ([4]; Clade S follow-up) | pIC50 or pSDR50 FLuc E [4] | IC50 [4] | pIC50 or pSDR50 FLuc E ([4]; Clade S follow-up) | IC50 ([4]; Clade S follow-up) |
| --- | --- | --- | --- | --- | --- | --- | --- | --- | --- |
| COc1ccc(C2Cn3cnc(C(=O)N4CCC(C(=O)NC5CCCCCC5)CC4)c3CO2)cc1 (stereo not shown) [NCGC00449862-01] | 0.00% | -12.50% | 0.00% | 0.00% | 0.00% | – | – | – | – |
| O=C(NC1CC1)C1CCN(C(=O)c2ncn3c2COC(c2ccc(Cl)cc2)C3)CC1 (stereo not shown) [NCGC00449842-01] | 0.00% | 0.00% | 18.50% | 0.00% | -28.68% | – | – | – | – |
| O=C(NC1CCCCCC1)C1CCN(C(=O)c2ncn3c2COC(c2ccc(Cl)cc2)C3)CC1 (stereo not shown) [NCGC00449846-01] | 0.00% | 0.00% | 13.50% | 0.00% | -16.55% | – | – | – | – |
| O=C(NCc1ccc(F)c(Cl)c1)C1CCN(C(=O)c2ncn3c2COC(c2ccccc2)C3)CC1 (stereo not shown) [NCGC00449790-01] | 0.00% | -17.00% | 237.76% | 0.00% | -95.32% | 5.46 | 0.0035 mM | – | – |
| O=C(NCCCc1ccccc1)C1CCN(C(=O)c2ncn3c2COC(c2ccccc2)C3)CC1 (stereo not shown) [NCGC00449797-01] | 0.00% | 0.00% | 265.99% | 0.00% | -79.71% | 5.36 | 0.00441 mM | – | – |
| O=C(NCCC1=CCCCC1)C1CCN(C(=O)c2ncn3c2COC(c2ccc(F)cc2)C3)CC1 (stereo not shown) [NCGC00449811-01] | 0.00% | 0.00% | 50.67% | 0.00% | -41.16% | 5.01 | 0.00988 mM | – | – |
| O=C(NCc1cccc(Cl)c1)C1CCN(C(=O)c2ncn3c2COC(c2ccccc2)C3)CC1 (stereo not shown) [NCGC00449787-01] | 0.00% | -16.86% | 263.69% | 0.00% | -81.06% | 4.96 | 0.0111 mM | – | – |
| O=C(NC1CCCCCC1)C1CCN(C(=O)c2ncn3c2COC(c2ccccc2)C3)CC1 (stereo not shown) [NCGC00449769-01] | 0.00% | 0.00% | 369.53% | 0.00% | -80.74% | 5.26 | 0.00555 mM | – | – |
| O=C(NCc1cccc(F)c1)C1CCN(C(=O)c2ncn3c2COC(c2ccc(F)cc2)C3)CC1 (stereo not shown) [NCGC00449837-01] | 0.00% | 0.00% | 75.17% | 0.00% | -43.87% | – | – | 5.01 | 0.00988 mM |
| CC(CNC(=O)C1CCN(C(=O)c2ncn3c2COC(c2ccc(F)cc2)C3)CC1)c1ccccc1 (stereo not shown) [NCGC00449827-01] | 0.00% | 0.00% | 15.49% | 0.00% | -13.06% | – | – | – | – |
| Cc1ccc(C2Cn3cnc(C(=O)N4CCC(C(=O)NCCCc5ccccc5)CC4)c3CO2)cc1 (stereo not shown) [NCGC00449897-01] | 0.00% | 0.00% | 151.61% | -10.39% | -69.05% | – | – | 5.01 | 0.00988 mM |
| CCc1ccc(CNC(=O)C2CCN(C(=O)c3ncn4c3COC(c3ccccc3)C4)CC2)cc1 (stereo not shown) [NCGC00449775-01] | 0.00% | 0.00% | 294.78% | 0.00% | -61.62% | 5.01 | 0.00988 mM | – | – |
| Cc1ccc(C2Cn3cnc(C(=O)N4CCC(C(=O)NC5CCCCC5)CC4)c3CO2)cc1 (stereo not shown) [NCGC00449882-01] | 0.00% | 0.00% | 52.31% | 0.00% | -33.56% | – | – | 4.91 | 0.0124 mM |
| O=C(NC1CCCCC1)C1CCN(C(=O)c2ncn3c2COC(c2ccc(Cl)cc2)C3)CC1 (stereo not shown) [NCGC00449844-01] | 0.00% | 0.00% | 33.25% | 0.00% | -39.79% | – | – | 4.96 | 0.0111 mM |
| O=C(NCCc1ccccc1)C1CCN(C(=O)c2ncn3c2COC(c2ccc(Cl)cc2)C3)CC1 (stereo not shown) [NCGC00449854-01] | 0.00% | 0.00% | 0.00% | 0.00% | -25.47% | – | – | – | – |
| Cc1ccc(C2Cn3cnc(C(=O)N4CCC(C(=O)NCc5ccccc5F)CC4)c3CO2)cc1 (stereo not shown) [NCGC00449888-01] | 0.00% | 0.00% | 72.23% | 0.00% | -37.08% | – | – | 4.91 | 0.0124 mM |
| O=C(NCCC1=CCCCC1)C1CCN(C(=O)c2ncn3c2COC(c2ccc(Cl)cc2)C3)CC1 (stereo not shown) [NCGC00449848-01] | 0.00% | 0.00% | 23.50% | -6.50% | -32.57% | – | – | 4.91 | 0.0124 mM |
| COc1ccc(C2Cn3cnc(C(=O)N4CCC(C(=O)NCC5CCCCC5)CC4)c3CO2)cc1 (stereo not shown) [NCGC00449872-01] | 0.00% | 0.00% | 0.00% | 0.00% | -14.52% | – | – | – | – |
| Cc1ccc(C2Cn3cnc(C(=O)N4CCC(C(=O)NCCC5=CCCCC5)CC4)c3CO2)cc1 (stereo not shown) [NCGC00449883-01] | 0.00% | 0.00% | 75.13% | 0.00% | -54.72% | – | – | 5.01 | 0.00988 mM |
